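Following 48 hours of exposure in 96-well plates, responses at five concentrations were used to interpolate endpoints linearly. GI50 marks 50% less growth.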 Calls of active or inactive are those of the source. Cut-off read from the data, not from the text of the source: active = GI50 up to about 1.1 µM and inactive = higher.
Tests used:
Experiment in all cases: DTP human tumour cell line panel, 48 h
TK-10 = test system: TK-10
PC-3 = test system: PC-3
SF-539 = test system: SF-539
786-0 = test system: 786-0
SW-620 = test system: SW-620
UO-31 = test system: UO-31
SN12C = test system: SN12C
SF-295 = test system: SF-295
COLO 205 = test system: COLO 205
MOLT-4 = test system: MOLT-4
MDA-MB-435 = test system: MDA-MB-435
SR = test system: SR
OVCAR-3 = test system: OVCAR-3
SK-MEL-2 = test system: SK-MEL-2
Hs-578T = test system: Hs-578T
U-251 = test system: U-251
K562 = test system: K562
MCF7 = test system: MCF7
Malme-3M = test system: Malme-3M
SK-MEL-28 = test system: SK-MEL-28

SMILES	GI50 (TK-10)	GI50 (PC-3)	GI50 (SF-539)	GI50 (786-0)	GI50 (SW-620)	GI50 (UO-31)	GI50 (SN12C)	GI50 (SF-295)	GI50 (COLO 205)	GI50 (MOLT-4)	GI50 (MDA-MB-435)	GI50 (SR)	GI50 (OVCAR-3)	GI50 (SK-MEL-2)	GI50 (Hs-578T)	GI50 (U-251)	GI50 (K562)	GI50 (MCF7)	GI50 (Malme-3M)	GI50 (SK-MEL-28)
C/C=C/[C@H]1O[C@@](OC)([C@@H](C)[C@H](O)[C@H](C)[C@H]2OC(=O)/C(OC)=C/C(C)=C/[C@@H](C)[C@@H](O)[C@@H](C)[C@@H](O)[C@H](C)C/C(C)=C/C=C/[C@@H]2OC)CC(OC2CC(O)C(OC(N)=O)C(C)O2)[C@@H]1C (stereo not given in full)	8.79 µM (inactive)	< 0.01 µM (active)	< 0.01 µM (active)	< 0.01 µM (active)	< 0.01 µM (active)	< 0.01 µM (active)	0.589 µM (active)	< 0.01 µM (active)	< 0.01 µM (active)	< 0.01 µM (active)	< 0.01 µM (active)	< 0.01 µM (active)	< 0.01 µM (active)	< 0.01 µM (active)	2.08 µM (inactive)	< 0.01 µM (active)	< 0.01 µM (active)	< 0.01 µM (active)	< 0.01 µM (active)	
CC(=O)OCCn1cnc2c(NCC=C(C)C)ncnc21	> 100 µM (inactive)	> 100 µM (inactive)	> 100 µM (inactive)	> 100 µM (inactive)	> 100 µM (inactive)	> 100 µM (inactive)	> 100 µM (inactive)	> 100 µM (inactive)	> 100 µM (inactive)	> 100 µM (inactive)	> 100 µM (inactive)	> 100 µM (inactive)	> 100 µM (inactive)		> 100 µM (inactive)		> 100 µM (inactive)	> 100 µM (inactive)	> 100 µM (inactive)	> 100 µM (inactive)
Nc1nc(Cl)c(N)c(NCC2(CO)CCCC2)n1	> 100 µM (inactive)	> 100 µM (inactive)	> 100 µM (inactive)	> 100 µM (inactive)	> 100 µM (inactive)	> 100 µM (inactive)	> 100 µM (inactive)	86.7 µM (inactive)		74.8 µM (inactive)	80 µM (inactive)	> 100 µM (inactive)	62.1 µM (inactive)	> 100 µM (inactive)	> 100 µM (inactive)	> 100 µM (inactive)	77.1 µM (inactive)	90.6 µM (inactive)	> 100 µM (inactive)	> 100 µM (inactive)
O=C(CC(O)(C(F)(F)F)C(F)(F)F)C(c1ccccc1)C(O)(C(F)(F)F)C(F)(F)F (stereo not given)	26.3 µM (inactive)	4.15 µM (inactive)	17.1 µM (inactive)	31.3 µM (inactive)	14.4 µM (inactive)	10.3 µM (inactive)		40 µM (inactive)	11.4 µM (inactive)	62.8 µM (inactive)	47.3 µM (inactive)	9.31 µM (inactive)	11.5 µM (inactive)	35.1 µM (inactive)	4.15 µM (inactive)	5.45 µM (inactive)	7.6 µM (inactive)	45.7 µM (inactive)	50.4 µM (inactive)	25.4 µM (inactive)
CC(=O)NNc1nc(C)c(C(/C=C/c2ccc([N+](=O)[O-])cc2)=N/NC(N)=S)s1	> 100 µM (inactive)	> 100 µM (inactive)	> 100 µM (inactive)	> 100 µM (inactive)	> 100 µM (inactive)	> 100 µM (inactive)	> 100 µM (inactive)	> 100 µM (inactive)	> 100 µM (inactive)	> 100 µM (inactive)	> 100 µM (inactive)	> 100 µM (inactive)	> 100 µM (inactive)	> 100 µM (inactive)	> 100 µM (inactive)	> 100 µM (inactive)		> 100 µM (inactive)	> 100 µM (inactive)	> 100 µM (inactive)
COc1ccc(-n2nnc(C(N)=O)c2O)cc1		> 100 µM (inactive)		> 100 µM (inactive)	> 100 µM (inactive)	32.3 µM (inactive)	> 100 µM (inactive)	> 100 µM (inactive)	> 100 µM (inactive)	> 100 µM (inactive)	> 100 µM (inactive)	> 100 µM (inactive)	0.0187 µM (active)	> 100 µM (inactive)	> 100 µM (inactive)	> 100 µM (inactive)	> 100 µM (inactive)	> 100 µM (inactive)	91 µM (inactive)	> 100 µM (inactive)
C=C1[C@H](OC(=O)C(C)C)[C@]23CC4(O)[C@@H]5[C@@]6(C)CCC[C@]57C([C@@H]2C[C@@]1(O)[C@H](O)[C@@H]73)N4C6	> 100 µM (inactive)	> 100 µM (inactive)	> 100 µM (inactive)	> 100 µM (inactive)	> 100 µM (inactive)	> 100 µM (inactive)		> 100 µM (inactive)	> 100 µM (inactive)	> 100 µM (inactive)	> 100 µM (inactive)	> 100 µM (inactive)	> 100 µM (inactive)	> 100 µM (inactive)	> 100 µM (inactive)	> 100 µM (inactive)		> 100 µM (inactive)	> 100 µM (inactive)	> 100 µM (inactive)
